Measured values taken from the NIST ThermoML archive (doi:10.1016/j.fluid.2007.05.030).
Values joined by “and” are separate entries in the source; they are usually repeats but may differ in a detail not shown here. Equal entries are not always repeated.

Assays:
[1] = Liquid; for mass density: 101.33 kPa
[2] = excess molar enthalpy (molar enthalpy of mixing); xn = mol fraction of the nth substance listed; conditions: 101 kPa, Liquid

O [water]
Conditions	vapor or sublimation pressure
[1], 363.15 K	70.09 kPa and 69.93 kPa

CC(=O)OCCOC(C)=O [ethylene diacetate] + CC(=O)O
[2], 323.15 K, Flow calorimetry
Conditions	excess molar enthalpy [kJ/mol]
x2 = 0.1086	0.175
x2 = 0.2045	0.275
x2 = 0.2899	0.331
x2 = 0.3665	0.361
x2 = 0.4354	0.374
x2 = 0.4979	0.374
x2 = 0.5547	0.367
x2 = 0.6067	0.349
x2 = 0.6544	0.328
x2 = 0.6982	0.308
x2 = 0.7388	0.28
x2 = 0.7763	0.251
x2 = 0.8112	0.22
x2 = 0.8437	0.187
x2 = 0.8741	0.157
x2 = 0.9025	0.122
x2 = 0.9291	0.0912
x2 = 0.9542	0.0585
x2 = 0.9778	0.028

CC(=O)OCCO [2-hydroxyethyl acetate]
[1]
Conditions	mass density [kg/m3]	vapor or sublimation pressure
283.16 K	1118.6	–
288.14 K	1113.8	–
293.14 K	1108.9	–
298.14 K	1104.1	–
303.14 K	1099.2	–
308.14 K	1094.4	–
313.14 K	1089.5	–
318.14 K	1084.6	–
323.14 K	1079.7	–
328.14 K	1074.8	–
333.14 K	1069.9	–
338.14 K	1064.9	–
343.14 K	1059.9	–
363.15 K	–	2.228 kPa [middle of 4 runs]
374.42 K	–	3.79 kPa
403.66 K	–	13.81 kPa
417.65 K	–	23.64 kPa
427.41 K	–	33.46 kPa
434.9 K	–	43.3 kPa
440.57 K	–	53.13 kPa
444.25 K	–	62.95 kPa
448.78 K	–	72.79 kPa

CC(=O)OCCOC(C)=O [ethylene diacetate] + O
[2], 323.15 K, Flow calorimetry
Conditions	excess molar enthalpy [kJ/mol]
x2 = 0.0844	0.629
x2 = 0.1574	1
x2 = 0.2211	1.25
x2 = 0.2771	1.38
x2 = 0.3713	1.5
x2 = 0.4473	1.51
x2 = 0.5624	1.27
x2 = 0.6455	1.02
x2 = 0.7342	0.76
x2 = 0.8138	0.524
x2 = 0.8793	0.334
x2 = 0.9161	0.224
x2 = 0.9444	0.144
x2 = 0.9668	0.0791
x2 = 0.9808	0.0338

OCCO [1,2-ethanediol]
Conditions	vapor or sublimation pressure
[1], 363.15 K	1.202 kPa and 1.28 kPa and 1.38 kPa

CC(=O)OCCO [2-hydroxyethyl acetate] + CC(=O)O
[2], 323.15 K, Flow calorimetry
Conditions	excess molar enthalpy [kJ/mol]
x2 = 0.0798	-0.101
x2 = 0.1906	-0.21
x2 = 0.2919	-0.266
x2 = 0.414	-0.278
x2 = 0.5236	-0.241
x2 = 0.6224	-0.183
x2 = 0.7332	-0.0931
x2 = 0.8318	-0.0135
x2 = 0.9203	0.0286

CC(=O)O [acetic acid] + OCCO
excess molar enthalpy [kJ/mol], [2]
Conditions	298.15 K	323.15 K
x1 = 0.0489	0.00662	–
x1 = 0.049	–	0.0203
x1 = 0.098	0.00415	0.0293
x1 = 0.1472	-0.00204	0.0264
x1 = 0.1964	-0.0113	–
x1 = 0.1965	–	0.0217
x1 = 0.2458	-0.0249	–
x1 = 0.2459	–	0.0127
x1 = 0.2953	-0.035	–
x1 = 0.2954	–	0.0072
x1 = 0.3449	-0.0459	–
x1 = 0.345	–	-0.00086
x1 = 0.3946	-0.056	–
x1 = 0.3947	–	-0.0063
x1 = 0.4444	-0.0617	–
x1 = 0.4445	–	-0.0096
x1 = 0.4944	-0.0633	–
x1 = 0.4945	–	-0.007
x1 = 0.5444	-0.057	–
x1 = 0.5445	–	-0.0011
x1 = 0.5946	-0.0446	–
x1 = 0.5947	–	0.0118
x1 = 0.6449	-0.026	–
x1 = 0.645	–	0.0307
x1 = 0.6953	0.00134	0.0526
x1 = 0.7458	0.0279	0.0792
x1 = 0.7964	0.0579	0.102
x1 = 0.8471	0.0821	–
x1 = 0.8472	–	0.121
x1 = 0.898	0.0938	0.124
x1 = 0.9489	0.077	0.0942

CC(=O)OCCOC(C)=O [ethylene diacetate] + OCCO
[2], 323.15 K, Flow calorimetry
Conditions	excess molar enthalpy [kJ/mol]
x1 = 0.0219	0.202
x1 = 0.0451	0.404
x1 = 0.0698	0.594
x1 = 0.096	0.795
x1 = 0.1241	0.969
x1 = 0.1541	1.12
x1 = 0.1862	1.26
x1 = 0.2208	1.39
x1 = 0.258	1.51
x1 = 0.2982	1.63
x1 = 0.3419	1.73
x1 = 0.3893	1.82
x1 = 0.4411	1.91
x1 = 0.4979	1.95
x1 = 0.5604	1.94
x1 = 0.6296	1.89
x1 = 0.7066	1.75
x1 = 0.7927	1.45
x1 = 0.8898	0.905

CC(=O)OCCO [2-hydroxyethyl acetate] + CC(=O)OCCOC(C)=O
[2], 323.15 K, Flow calorimetry
Conditions	excess molar enthalpy [kJ/mol]
x1 = 0.103	0.288
x1 = 0.231	0.545
x1 = 0.3777	0.683
x1 = 0.5367	0.699
x1 = 0.7024	0.596
x1 = 0.8299	0.41
x1 = 0.9272	0.207

CC(=O)OCCO [2-hydroxyethyl acetate] + OCCO
[2], 323.15 K, Flow calorimetry
Conditions	excess molar enthalpy [kJ/mol]
x1 = 0.0784	0.182
x1 = 0.1656	0.338
x1 = 0.2632	0.465
x1 = 0.3732	0.551
x1 = 0.4718	0.581
x1 = 0.5815	0.57
x1 = 0.7043	0.491
x1 = 0.8065	0.374
x1 = 0.9188	0.18

CC(=O)OCCOC(C)=O [ethylene diacetate]
Conditions	vapor or sublimation pressure
[1], 363.15 K	2.744 kPa [middle of 4 runs]

CC(=O)OCCO [2-hydroxyethyl acetate] + O
[2], 323.15 K, Flow calorimetry
Conditions	excess molar enthalpy [kJ/mol]
x2 = 0.1179	-0.803
x2 = 0.2578	-0.738
x2 = 0.3978	-0.489
x2 = 0.546	-0.304
x2 = 0.6907	-0.156
x2 = 0.825	-0.0706
x2 = 0.9399	-0.02

CC(=O)O [acetic acid]
Conditions	vapor or sublimation pressure
[1], 363.15 K	39.68 kPa and 39.67 kPa and 39.66 kPa
